Among the data in patent US20230295087A1, “AGONISTS OF ROR GAMMAt” (BRISTOL-MYERS SQUIBB COMPANY, priority 2019, published 2023) are EC50 values, retold here.

pEC50: −log10 of the molar value.

The test concerns the target T1, human RORgT (Homo sapiens, UniProt P51449).
T1 construct: expressed in transfected cells
T1 sequence (P51449 267-516): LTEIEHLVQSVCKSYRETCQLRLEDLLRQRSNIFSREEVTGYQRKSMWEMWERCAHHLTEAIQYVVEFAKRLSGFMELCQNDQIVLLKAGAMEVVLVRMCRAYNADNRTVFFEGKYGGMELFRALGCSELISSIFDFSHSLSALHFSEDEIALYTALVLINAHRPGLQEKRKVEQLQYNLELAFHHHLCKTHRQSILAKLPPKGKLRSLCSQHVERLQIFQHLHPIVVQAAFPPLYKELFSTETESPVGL
Briefly: RORgT Gal4 Luciferase Reporter Gene Assay. The format is cell-based. The settings on record: engineered Jurkat cells overexpressing RORgT (LBD or full length) fused with Gal4 Luc reporter; 18 hours at 37° C.; luminescence. A digest of the protocol: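 Jurkat cells expressing Gal4 Luc with either RORgT LBD (aa267-516) or full-length human RORgT, 10,000 cells/well, treated with compound (40 µM to 0.67 nM final, 3-fold dilutions) for 18 h at 37° C. Steady-Glo luminescence read; inhibition of constitutive activity as % signal-window reduction relative to a control compound.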

For `O=C(C1CCS(=O)(=O)C1)N1CC[C@@]2(S(=O)(=O)c3ccc(F)cc3)c3ccc(OCc4c(F)cccc4Cl)cc3CC[C@@H]12` (stereo partly drawn) [Example 163, 3-[(3aR,9bR)-7-[(2-chloro-6-fluorophenyl)methoxy]-9b-(4-fluorobenzenesulfonyl)-1H,2H,3H,3aH,4H,5H,9bH-benzo[e]indole-3-carbonyl]-1λ^6-thiolane-1,1-dione], the pEC50 is 7.92.
`CS(=O)(=O)N1CCC(C(=O)N2CC[C@@]3(S(=O)(=O)c4ccc(F)cc4)c4ccc(OCc5c(F)cccc5Cl)cc4CC[C@@H]23)CC1` [Example 164, 4-[(3aR,9bR)-7-[(2-chloro-6-fluorophenyl)methoxy]-9b-(4-fluorobenzenesulfonyl)-1H,2H,3H,3aH,4H,5H,9bH-benzo[e]indole-3-carbonyl]-1-methanesulfonylpiperidine] had a pEC50 of 7.62.
The compound `O=C(CN1CCS(=O)(=O)CC1)N1CC[C@@]2(S(=O)(=O)c3ccc(F)cc3)c3ccc(OCc4c(F)cccc4Cl)cc3CC[C@@H]12` [Example 165, 4-{2-[(3aR,9bR)-7-[(2-chloro-6-fluorophenyl)methoxy]-9b-(4-fluorobenzenesulfonyl)-1H,2H,3H,3aH,4H,5H,9bH-benzo[e]indol-3-yl]-2-oxoethyl}-1λ^6-thiomorpholine-1,1-dione] gave a negative-log EC50 (pEC50) of 7.96.
`O=C(C1CCS(=O)(=O)CC1)N1CC[C@@]2(S(=O)(=O)c3ccc(F)cc3)c3ccc(OCc4c(F)cccc4Cl)cc3CC[C@@H]12` [Example 166, 4-[(3aR,9bR)-7-[(2-chloro-6-fluorophenyl)methoxy]-9b-(4-fluorobenzenesulfonyl)-1H,2H,3H,3aH,4H,5H,9bH-benzo[e]indole-3-carbonyl]-1λ^6-thiane-1,1-dione] gave a pEC50 of 8.11.
For `CC(=O)N1CCC(C(=O)N2CC[C@@]3(S(=O)(=O)c4ccc(F)cc4)c4ccc(OCc5c(F)cccc5Cl)cc4CC[C@@H]23)CC1` [Example 167, 1-{4-[(3aR,9bR)-7-[(2-chloro-6-fluorophenyl)methoxy]-9b-(4-fluorobenzenesulfonyl)-1H,2H,3H,3aH,4H,5H,9bH-benzo[e]indole-3-carbonyl]piperidin-1-yl}ethan-1-one] the value was 7.89; for `COC(=O)[C@H]1CC[C@H](C(=O)N2CC[C@@]3(S(=O)(=O)c4ccc(F)cc4)c4ccc(OCc5c(Cl)cccc5Cl)cc4CC[C@@H]23)CC1` [Example 169, methyl(1r,4r)-4-[(3aR,9bR)-7-[(2,6-dichlorophenyl)methoxy]-9b-(4-fluorobenzenesulfonyl)-1H,2H,3H,3aH,4H,5H,9bH-benzo[e]indole-3-carbonyl]cyclohexane-1-carboxylate], 7.43.
`O=C(C1CCS(=O)(=O)C1)N1CC[C@@]2(S(=O)(=O)c3ccc(F)cc3)c3ccc(OCc4c(Cl)cccc4Cl)cc3CC[C@@H]12` (stereo partly drawn) [Example 170, 3-[(3aR,9bR)-7-[(2,6-dichlorophenyl)methoxy]-9b-(4-fluorobenzenesulfonyl)-1H,2H,3H,3aH,4H,5H,9bH-benzo[e]indole-3-carbonyl]-1λ^6-thiolane-1,1-dione] gave a pEC50 of 7.85.
`CN1CCC(C(=O)N2CC[C@@]3(S(=O)(=O)c4ccc(F)cc4)c4ccc(OCc5c(Cl)cccc5Cl)cc4CC[C@@H]23)CC1` [Example 171, 4-[(3aR,9bR)-7-[(2,6-dichlorophenyl)methoxy]-9b-(4-fluorobenzenesulfonyl)-1H,2H,3H,3aH,4H,5H,9bH-benzo[e]indole-3-carbonyl]-1-methylpiperidine] showed a pEC50 of 6.95.
Regarding `NC(=O)N1CCC(C(=O)N2CC[C@@]3(S(=O)(=O)c4ccc(F)cc4)c4ccc(OCc5c(Cl)cccc5Cl)cc4CC[C@@H]23)CC1` [Example 172, 4-[(3aR,9bR)-7-[(2,6-dichlorophenyl)methoxy]-9b-(4-fluorobenzenesulfonyl)-1H,2H,3H,3aH,4H,5H,9bH-benzo[e]indole-3-carbonyl]piperidine-1-carboxamide], the negative logarithm of the EC50 (pEC50) was 7.72.
Turning to `O=C(CN1CCS(=O)(=O)CC1)N1CC[C@@]2(S(=O)(=O)c3ccc(F)cc3)c3ccc(OCc4c(Cl)cccc4Cl)cc3CC[C@@H]12` [Example 173, 4-{2-[(3aR,9bR)-7-[(2,6-dichlorophenyl)methoxy]-9b-(4-fluorobenzenesulfonyl)-1H,2H,3H,3aH,4H,5H,9bH-benzo[e]indol-3-yl]-2-oxoethyl}-1λ^6-thiomorpholine-1,1-dione], the pEC50 is 7.85.
Compound `CC(=O)N1CCC(C(=O)N2CC[C@@]3(S(=O)(=O)c4ccc(F)cc4)c4ccc(OCc5cc(F)ccc5Cl)cc4CC[C@@H]23)CC1` [Example 174, 1-{4-[(3aR,9bR)-7-[(2-chloro-5-fluorophenyl)methoxy]-9b-(4-fluorobenzenesulfonyl)-1H,2H,3H,3aH,4H,5H,9bH-benzo[e]indole-3-carbonyl]piperidin-1-yl}ethan-1-one] gave a pEC50 of 7.59.
With `O=C(O)[C@H]1CC[C@H](C(=O)N2CC[C@@]3(S(=O)(=O)c4ccc(F)cc4)c4ccc(OCc5cc(F)ccc5Cl)cc4CC[C@@H]23)CC1` [Example 175, (1r,4r)-4-[(3aR,9bR)-7-[(2-chloro-5-fluorophenyl)methoxy]-9b-(4-fluorobenzenesulfonyl)-1H,2H,3H,3aH,4H,5H,9bH-benzo[e]indole-3-carbonyl]cyclohexane-1-carboxylic acid], the pEC50 was 8.02.
`COC(=O)[C@H]1CC[C@H](C(=O)N2CC[C@@]3(S(=O)(=O)c4ccc(F)cc4)c4ccc(OCc5cc(F)ccc5Cl)cc4CC[C@@H]23)CC1` [Example 176, methyl (1r,4r)-4-[(3aR,9bR)-7-[(2-chloro-5-fluorophenyl)methoxy]-9b-(4-fluorobenzenesulfonyl)-1H,2H,3H,3aH,4H,5H,9bH-benzo[e]indole-3-carbonyl]cyclohexane-1-carboxylate] gave a pEC50 of 7.25.
For `CS(=O)(=O)N1CCC(C(=O)N2CC[C@@]3(S(=O)(=O)c4ccc(F)cc4)c4ccc(OCc5cc(F)ccc5Cl)cc4CC[C@@H]23)CC1` [Example 177, 4-[(3aR,9bR)-7-[(2-chloro-5-fluorophenyl)methoxy]-9b-(4-fluorobenzenesulfonyl)-1H,2H,3H,3aH,4H,5H,9bH-benzo[e]indole-3-carbonyl]-1-methanesulfonylpiperidine], the pEC50 is 7.74.
Compound `O=C(C1CCS(=O)(=O)C1)N1CC[C@@]2(S(=O)(=O)c3ccc(F)cc3)c3ccc(OCc4cc(F)ccc4Cl)cc3CC[C@@H]12` (stereo partly drawn) [Example 178, 3-[(3aR,9bR)-7-[(2-chloro-5-fluorophenyl)methoxy]-9b-(4-fluorobenzenesulfonyl)-1H,2H,3H,3aH,4H,5H,9bH-benzo[e]indole-3-carbonyl]-1λ^6-thiolane-1,1-dione] had a pEC50 of 7.92.
The compound `NC(=O)N1CCC(C(=O)N2CC[C@@]3(S(=O)(=O)c4ccc(F)cc4)c4ccc(OCc5cc(F)ccc5Cl)cc4CC[C@@H]23)CC1` [Example 179, 4-[(3aR,9bR)-7-[(2-chloro-5-fluorophenyl)methoxy]-9b-(4-fluorobenzenesulfonyl)-1H,2H,3H,3aH,4H,5H,9bH-benzo[e]indole-3-carbonyl]piperidine-1-carboxamide] gave a pEC50 of 7.92.
In the case of `O=C(CN1CCS(=O)(=O)CC1)N1CC[C@@]2(S(=O)(=O)c3ccc(F)cc3)c3ccc(OCc4cc(F)ccc4Cl)cc3CC[C@@H]12` [Example 180, 4-{2-[(3aR,9bR)-7-[(2-chloro-5-fluorophenyl)methoxy]-9b-(4-fluorobenzenesulfonyl)-1H,2H,3H,3aH,4H,5H,9bH-benzo[e]indol-3-yl]-2-oxoethyl}-1λ^6-thiomorpholine-1,1-dione], the pEC50 is 7.68.
`O=C(C1CCS(=O)(=O)CC1)N1CC[C@@]2(S(=O)(=O)c3ccc(F)cc3)c3ccc(OCc4cc(F)ccc4Cl)cc3CC[C@@H]12` [Example 181, 4-[(3aR,9bR)-7-[(2-chloro-5-fluorophenyl)methoxy]-9b-(4-fluorobenzenesulfonyl)-1H,2H,3H,3aH,4H,5H,9bH-benzo[e]indole-3-carbonyl]-1λ^6-thiane-1,1-dione]: the pEC50 is 8.06.
For `CC(=O)N1CCC(C(=O)N2CC[C@@]3(S(=O)(=O)c4ccc(F)cc4)c4ccc(OCc5c(F)cccc5C(F)(F)F)cc4CC[C@@H]23)CC1` [Example 182, 1-{4-[(3aR,9bR)-7-{[2-fluoro-6-(trifluoromethyl)phenyl]methoxy}-9b-(4-fluorobenzenesulfonyl)-1H,2H,3H,3aH,4H,5H,9bH-benzo[e]indole-3-carbonyl]piperidin-1-yl}ethan-1-one], the pEC50 is 7.80.
Compound `COC(=O)[C@H]1CC[C@H](C(=O)N2CC[C@@]3(S(=O)(=O)c4ccc(F)cc4)c4ccc(OCc5c(F)cccc5C(F)(F)F)cc4CC[C@@H]23)CC1` [Example 183, methyl (1r,4r)-4-[(3aR,9bR)-7-{[2-fluoro-6-(trifluoromethyl)phenyl]methoxy}-9b-(4-fluorobenzenesulfonyl)-1H,2H,3H,3aH,4H,5H,9bH-benzo[e]indole-3-carbonyl]cyclohexane-1-carboxylate] had a pEC50 of 7.32.
With `CN1CCC(C(=O)N2CC[C@@]3(S(=O)(=O)c4ccc(F)cc4)c4ccc(OCc5c(F)cccc5C(F)(F)F)cc4CC[C@@H]23)CC1` [Example 184, 4-[(3aR,9bR)-7-{[2-fluoro-6-(trifluoromethyl)phenyl]methoxy}-9b-(4-fluorobenzenesulfonyl)-1H,2H,3H,3aH,4H,5H,9bH-benzo[e]indole-3-carbonyl]-1-methylpiperidine], the pEC50 was 7.17.
